Test results from publication PMC6152666, “Five New Limonoids from Peels of Satsuma Orange (Citrus reticulata)” (Molecules : A Journal of Synthetic Chemistry and Natural …, 2017).
“Also recorded” adds a separate entry of the source.

Columns and labels:
[1] = Cytotoxicity assay (MTT) in RAW264.7 cells; assay type: cell-based, mouse; details: mouse, RAW264.7 cells, RAW264.7, MTT, 24 h, vehicle control = 100%, mean ± S.E., n=4, read-out: Cell Viability %
Description: (§1) RAW264.7 cells were grown in D-MEM medium supplemented with 10% FBS and antibiotics (100 units/mL penicillin G sodium salt and 100 μg/mL streptomycin sulfate). Cells were incubated at 37 °C in a 5% CO2 humidified incubator.
(§2) Cytotoxicity assay was performed according to a method reported previously Briefly, RAW264.7 cells (5 × 10^4 cells in 100 μL) were seeded onto a 96-well microplate and incubated for 24 h. DMEM containing test samples (100 μL total volume, final concentration of 30, 10, 3, or 1 μM) dissolved in DMSO (final concentration 0.2%) was added. After treatment for 24 h, MTT solution was added. After a 3-h incubation, 20% sodium dodecyl sulfate in 0.1 M HCl was added to dissolve the formazan produced in the cells. The absorbance of each well was read at 570 nm using a microplate reader. The optical density of vehicle control cells was assumed to be 100%.

[2] = tested on: NO production in RAW264.7 mouse macrophages stimulated by lipopolysaccharide (LPS); test: Inhibitory assay of NO production in LPS-stimulated RAW264.7 macrophages; assay type: cell-based; details: for activity at 1 µM / activity at 3 µM / activity at 10 µM / activity at 30 µM / IC50: Mus musculus; for activity at 1 µM / activity at 3 µM / activity at 10 µM / activity at 30 µM / IC50 / Inhibitory Ratio of NO % (produced NO ratio): RAW264.7 + LPS 5 μg/mL, 24 h; for activity at 1 µM / activity at 3 µM / activity at 10 µM / activity at 30 µM / Inhibitory Ratio of NO % (produced NO ratio): vehicle control = 100%, mean ± S.E., n=4; for activity at 1 µM / activity at 3 µM / activity at 10 µM: read-out: Inhibitory Ratio of NO %; for activity at 30 µM: read-out: Inhibitory Ratio of NO % (produced NO ratio); for activity at 30 µM / Inhibitory Ratio of NO % (produced NO ratio): 30 μM
Description: Macrophages may be a potential therapeutic target for inflammatory diseases. Activated macrophages release pro-inflammatory mediators, such as NO, reactive oxygen species, interleukin-1β, tumor necrosis factor-α, and other inflammatory mediators, which play important roles in biological defense. However, the overexpression of these mediators had been implicated in diseases such as osteoarthritis, rheumatoid arthritis, and diabetes because the increased production of pro-inflammatory mediators induces severe or chronic inflammation. Isolated compounds (1–12), and N^G-monomethyl-L-arginine, acetate (L-NMMA), which is a NO synthase inhibitor and was used as a positive control, were evaluated for macrophage activation by the inhibitory assay of NO production in RAW264.7 mouse macrophages stimulated by lipopolysaccharide (LPS).
as §1
An inhibitory assay of NO production was performed according to a method reported previously with slight modifications. Briefly, RAW264.7 cells (5 × 10^4 cells in 100 μL) were seeded into a 96-well microplate and incubated for 24 h. DMEM containing test samples (100 μL total volume, final concentration of 30, 10, 3, or 1 μM) dissolved in DMSO (final concentration 0.2%), and LPS (final concentration of 5 μg/mL), was added. After treatment for 24 h, the supernatant of culture medium was transferred to another 96-well microplate, and then 50 μL of 0.15% N-(1-naphtyl)ethylenediamine in H2O, and 1.5% sulfanilamide in 7.5% phosphoric acid were added. After incubation for 30 min, the absorbance of each well was read at 570 nm using a microplate reader. The optical density of vehicle control cells was assumed to be 100%.

RAW264.7 cells = test: Cytotoxicity assay (MTT) in RAW264.7 cells; assay type: cell-based, mouse; details: RAW264.7, 1–30 μM
Description: as §1, §2

IC50 [2] | melting point | Compound | viability at 24 h, 1 µM [1] | viability at 24 h, 3 µM [1] | viability at 24 h, 10 µM [1] | viability at 24 h, 30 µM [1] | activity at 1 µM [2] | activity at 3 µM [2] | activity at 10 µM [2] | activity at 30 µM [2] | cytotoxicity (in words) (RAW264.7 cells) | inhibitory effect on NO production (in words) ([2]; RAW264.7 + LPS, 1–30 μM) | Inhibitory Ratio of NO % (produced NO ratio) [2]
> 30 µM | – | COC1OC(OC)C2(C3OC(=O)C4OC45C3(C)CCC3C46COC(=O)CC4OC(C)(C)C6CC(=O)C35C)OC12 (stereo not drawn) [Compound 9, evolimorutanin] | 101% | 97.7% | 101% | 97.6% | 94.3 ± 4.3% | 85.2 ± 6.4% | 91.3 ± 2.8% | 89.9 ± 3.2% | – | – | –
> 30 µM | – | CC1(C)OC(=O)C=C[C@]2(C)[C@H]3CC[C@@]4(C)[C@H](C5=CC(=O)OC5O)OC(=O)[C@H]5O[C@]54[C@]3(C)C(=O)C[C@@H]12 (stereo partly drawn) [Compound 10, kihadanin A] | 105% | 102% | 98.9% | 98.6% | 95 ± 4.2% | 96.8 ± 1.3% | 97.7 ± 2.2% | 86.6 ± 1.6% | – | – | –
> 30 µM | – | CC1(C)OC(=O)C[C@H](O)[C@]2(C)[C@H]3CC[C@@]4(C)[C@H](c5ccoc5)OC(=O)[C@H]5O[C@]54[C@]3(C)C(=O)C[C@@H]12 [Compound 11, deacetylnomilin] | 95.9% | 100% | 99.3% | 100% | 104 ± 3.1% | 93.2 ± 3.2% | 84.7 ± 3.2% | 78.1% | – | – | 78.1 ± 3.4 %
> 30 µM | – | CC(C)(O)[C@@H]1CC(=O)[C@]2(C)[C@H](CC[C@@]3(C)[C@H](c4ccoc4)OC(=O)[C@H]4O[C@]432)[C@]12COC(=O)C[C@@H]2O [Compound 12, ichangin] | 101% | 98.1% | 98.3% | 98.3% | 107 ± 4.1% | 92.6 ± 3.2% | 88.4 ± 5.5% | 73.9% | – | – | 73.9 ± 3.4 %
23.9 µM | – | [H]/N=C(/NC)NCCC[C@H](N)C(=O)O [L-NMMA, N^G-monomethyl-L-arginine, acetate, reference compound] | 102% | 102% | 98.5% | 109% | 93.3 ± 2.2% | 91.4 ± 0.8% | 68.9 ± 4.5% | 43.1 ± 1.1% | – | – | –

More lines, now with the values behind:

Compound | IC50 [2] | melting point | viability at 24 h, 1 µM [1] | viability at 24 h, 3 µM [1] | viability at 24 h, 10 µM [1] | viability at 24 h, 30 µM [1] | activity at 1 µM [2] | activity at 3 µM [2] | activity at 10 µM [2] | activity at 30 µM [2] | cytotoxicity (in words) (RAW264.7 cells) | inhibitory effect on NO production (in words) ([2]; RAW264.7 + LPS, 1–30 μM) | Inhibitory Ratio of NO % (produced NO ratio) [2]
CC(=O)O[C@H]1CC(=O)OC(C)(C)[C@@H]2CC(=O)[C@]3(C)[C@H](CC[C@@]4(C)[C@H](C5=CC(=O)OC5O)OC(=O)[C@H]5O[C@]543)[C@@]12C (stereo partly drawn) [Compound 1, 21,23-dihydro-21-hydroxy-23-oxonomilin] | > 30 µM | 200 to 201 °C | 99.1% | 102% | 104% | 99.3% | 110 ± 2.8% | 111 ± 1.7% | 105 ± 2.2% | 107 ± 2.5% | – | – | –
COC1C=C([C@@H]2OC(=O)[C@H]3O[C@@]34[C@@]2(C)CC[C@@H]2[C@@]3(C)[C@@H](OC(C)=O)CC(=O)OC(C)(C)[C@@H]3CC(=O)[C@]24C)C(=O)O1 (stereo partly drawn) [Compound 2, 21,23-dihydro-23-methoxy-21-oxonomilin] | 25.4 µM | 208 to 210 °C | 101% | 98.7% | 99.1% | 94.5% | 95.2 ± 1.6% | 89.8 ± 2.1% | 80.4 ± 2.1% | 39.3 ± 0.5% | without cytotoxicity; also recorded: without cytotoxicities | exhibited NO inhibitory activity | –
COC(=O)CC(OC(C)=O)C1(C)C(C(C)(C)O)CC(=O)C2(C)C1CCC1(C)C(C3=CC(=O)OC3O)OC(=O)C3OC312 (stereo not drawn) [Compound 3, 21,23-dihydro-21-hydroxy-23-oxonomilinic acid methyl ester] | > 30 µM | – | 96.8% | 94.5% | 93.2% | 93.4% | 99.4 ± 0.8% | 99.4 ± 2.3% | 94.1 ± 1.9% | 80.3% | – | – | 80.3 ± 1.2 %
COC1C=C([C@@H]2OC(=O)[C@H]3O[C@@]34[C@@]2(C)CC[C@@H]2[C@@]35COC(=O)C[C@@H]3OC(C)(C)[C@@H]5CC(=O)[C@]24C)C(=O)O1 (stereo partly drawn) [Compound 4, 21,23-dihydro-23-methoxy-21-oxolimonin] | > 30 µM | – | 103% | 97% | 95.1% | 91.7% | 96.2 ± 7.9% | 94 ± 2.7% | 101 ± 1.2% | 95.2 ± 3.4% | – | – | –
CC1(C)O[C@H]2CC(=O)OC[C@]23[C@H]2CC[C@@]4(C)[C@H](C5=CCOC5=O)OC(=O)[C@H]5O[C@]54[C@]2(C)C(=O)C[C@@H]13 [Compound 5, 21,23-Dihydro-21-oxolimonin] | > 30 µM | – | 97.9% | 97.9% | 99.5% | 96.6% | 99.5 ± 5.6% | 101 ± 4.7% | 93.8 ± 1.6% | 83.2% | – | – | 83.2 ± 5.6 %
CC1(C)O[C@H]2CC(=O)OC[C@]23[C@H]2CC[C@@]4(C)[C@H](c5ccoc5)OC(=O)[C@H]5O[C@]54[C@]2(C)C(=O)C[C@@H]13 [Compound 6, limonin] | > 30 µM | – | 100% | 95.6% | 97.2% | 99.3% | 102 ± 4.4% | 93.4 ± 5.7% | 90.9 ± 3.1% | 86 ± 5.5% | – | – | –
CC1(C)O[C@H]2CC(=O)OC[C@]23[C@H]2CC[C@@]4(C)[C@H](C5=CC(=O)OC5O)OC(=O)[C@H]5O[C@]54[C@]2(C)C(=O)C[C@@H]13 (stereo partly drawn) [Compound 7, shihulimonin A] | > 30 µM | – | 102% | 106% | 104% | 100% | 99.8 ± 1.4% | 99 ± 3% | 96.8 ± 2.5% | 93.9 ± 4% | – | – | –
CC1(C)O[C@H]2CC(=O)OC[C@]23[C@H]2CC[C@@]4(C)[C@H](C5=CC(O)OC5=O)OC(=O)[C@H]5O[C@]54[C@]2(C)C(=O)C[C@@H]13 (stereo partly drawn) [Compound 8, limonexic acid] | > 30 µM | – | 98.1% | 97.6% | 92% | 89.3% | 97.2 ± 1.1% | 94.7 ± 2.4% | 90.9 ± 1.6% | 76% | – | – | 76.0 ± 2.2 %
